Tested on: patients chronically infected with HBV
Assay: 4-week clinical treatment combining weekly sub-cutaneous pegylated IFNα2a (PEG-IFN) with daily oral EYP001a or placebo: treatment emergent adverse events
Conditions: compared with Placebo + IFN; significant differences (Table 2)

Structure (SMILES): O=C(O)c1cc2c(Cl)c(N3CCN(S(=O)(=O)c4c(Cl)cccc4Cl)CC3)ccc2o1 [EYP001a]
- frequency of flu-like AE when IFN treatment was combined with EYP001: lower up to three times less
